Data reported in patent US11807693B2 (priority 2014, dated 2023).
Like-named read-outs stand apart in the source and are kept apart here. Starred links: 1 amine or outer side, 2 acyl side, 3 side chain; linkers in the order of their positions; H or OH if unused. Non-standard residues stand in square brackets, D forms with d. Residues, ends and D or L forms follow the SMILES beside them. ξ: configuration not given here. *: point of attachment. dBip = N[C@H](Cc1ccc(-c2ccccc2)cc1)C(=O)O; Oic = O=C(O)[C@@H]1C[C@@H]2CCCC[C@@H]2N1; Phe(4-Cl) = N[C@@H](Cc1ccc(Cl)cc1)C(=O)O; Phe(4-I) = N[C@@H](Cc1ccc(I)cc1)C(=O)O; γGlu = O=C(O)[C@H](CCC(=O)[*:2])N[*:1]; d(β3hF) = N[C@@H](CC(=O)O)Cc1ccccc1; NMeR = CN[C@@H](CCCNC(=N)N)C(=O)O; Palmitoyl = CCCCCCCCCCCCCCCC(=O)*; Tridecanoyl = CCCCCCCCCCCCC(=O)*; hArg = N=C(N)NCCCC[C@H](N)C(=O)O; β3hF = N[C@H](CC(=O)O)Cc1ccccc1; Cha = N[C@@H](CC1CCCCC1)C(=O)O; NMeL = CN[C@@H](CC(C)C)C(=O)O; αMeP = C[C@@]1(C(=O)O)CCCN1; ξαMeL = CC(C)CC(C)(N)C(=O)O; Nle = CCCC[C@H](N)C(=O)O; ξβ3hV = CC(C)C(N)CC(=O)O; 3TP = not defined here; AEEA = NCCOCCOCC(=O)O; Aib = CC(C)(N)C(=O)O

What was measured:
rat plasma = details: 37° C., up to 4 hr
[1] = In vitro stability in rat plasma; format: in vitro ADME
Outline: (§1)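 Stability was followed for 4 hr at 37° C. after spiking peptides (5 μM final) into rat plasma and tissue homogenates. Methanol quench with internal standard preceded high resolution LC-MS.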

rat APJ receptor = target: T1, rat APJ receptor (Rattus norvegicus, UniProt Q9JHG3); test: [35S] GTPγS assay, rat APJ receptor; format: biochemical
T1 construct: expressed in transfected cells
T1 sequence (Q9JHG3 1-377): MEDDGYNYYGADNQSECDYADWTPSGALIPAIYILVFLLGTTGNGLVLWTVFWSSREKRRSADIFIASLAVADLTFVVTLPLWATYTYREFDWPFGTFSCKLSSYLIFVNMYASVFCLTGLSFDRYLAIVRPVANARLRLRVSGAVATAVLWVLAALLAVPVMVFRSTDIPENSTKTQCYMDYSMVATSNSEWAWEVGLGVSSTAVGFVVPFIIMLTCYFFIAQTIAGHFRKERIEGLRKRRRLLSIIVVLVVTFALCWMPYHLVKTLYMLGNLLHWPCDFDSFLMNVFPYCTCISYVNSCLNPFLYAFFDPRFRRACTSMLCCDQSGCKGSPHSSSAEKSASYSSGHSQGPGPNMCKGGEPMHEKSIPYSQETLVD
Method: The membranes were incubated with modified peptides in the assay buffer. […] Bound [^35S] GTPγS was separated from free radiolabel by filtration. The filter bound radioactivity was determined by liquid scintillation counting.

[2] = In vitro stability in rat kidney homogenate; format: in vitro ADME; details: rat, tissue homogenate
Outline: as §1

human APJ receptor = target: T2, human APJ receptor (Homo sapiens, UniProt P35414); test: [35S] GTPγS assay, human APJ receptor; format: biochemical
T2 construct: expressed in transfected cells
T2 sequence (P35414 1-380): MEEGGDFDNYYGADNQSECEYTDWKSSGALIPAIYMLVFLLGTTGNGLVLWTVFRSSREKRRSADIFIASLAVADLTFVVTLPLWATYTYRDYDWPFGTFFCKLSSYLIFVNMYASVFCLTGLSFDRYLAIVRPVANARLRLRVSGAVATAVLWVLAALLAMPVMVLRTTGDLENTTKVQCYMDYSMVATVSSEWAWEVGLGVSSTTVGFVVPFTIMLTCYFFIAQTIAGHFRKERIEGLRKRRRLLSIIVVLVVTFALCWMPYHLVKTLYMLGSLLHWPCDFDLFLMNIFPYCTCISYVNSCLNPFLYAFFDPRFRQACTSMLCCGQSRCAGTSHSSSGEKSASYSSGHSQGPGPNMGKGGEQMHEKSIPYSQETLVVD

[3] = In vitro stability in rat liver homogenate; format: in vitro ADME; details: tissue homogenate
Outline: as §1

[4] = In vivo pharmacokinetics in rat; design: species or system Sprague-Dawley rats; details: for AUC(0-inf) / half-life: rat, in vivo, sc
Method: Evaluation of the in vivo pharmacokinetic profile of several pegylated and lipidated apelin polypeptides in rat was undertaken (FIGS. 9 and 10A-B). The apelin polypeptides were administered to Sprague-Dawley rats through subcutaneous (SC) administration and the pharmacokinetic profile for each polypeptide was subsequently evaluated. […] Blood samples collected over a 24 hr period were transferred into collection tubes containing potassium EDTA and stored on ice until processed. Plasma was obtained from blood by centrifugation. After transfer into a 96-well container, plasma samples were stored in a freezer maintained at approximately −80° C. Quantitative analysis of the apelin polypeptide in rat plasma samples was achieved using multiple reaction monitor (MRM) mode on a LC-MS/MS system.

[5] = rat APJ receptor, read-out: EC50 Rat APJ Receptor

## {Acetyl-NH} [hArg] E Q [hArg] P r [NMeLeu] S H K G [Oic] [pI-Phe] P [D-Bip] {COOH}
Rat plasma
  not cleaved: >90.0 % remaining at 4 hours

## CCCCCCCCCCCCC(=O)N[C@@H](CCC(=O)NCCOCCOCC(=O)NCCOCCOCC(=O)N[C@@H](CCC(N)=O)C(=O)N[C@@H](CCCNC(=N)N)C(=O)N1CCC[C@H]1C(=O)N(C)[C@@H](CCCNC(=N)N)C(=O)N[C@@H](CC1CCCCC1)C(=O)N[C@@H](CO)C(=O)N[C@@H](Cc1c[nH]cn1)C(=O)N[C@@H](CCCCN)C(=O)NCC(=O)N1CCC[C@@]1(C)C(=O)N[C@@H](CCCC)C(=O)N1CCC[C@H]1C(=O)N[C@@H](Cc1ccc(Cl)cc1)C(=O)O)C(=O)O [compound 418] ({Tridecanoyl-γGlu-AEEA-AEEA}-QRP[NMeR][Cha]SHKG[αMeP][Nle]P[Phe(4-Cl)]-OH)
[1]
  remaining at 4 h, 5 μM: > 90%
Rat APJ receptor; Table 16, read-out: EC50 Rat APJ Receptor
  EC50: 0.253 nM
[2]
  remaining at 4 h, 5 μM: 8%
Human APJ receptor; Table 16
  EC50: 0.147 nM
[3]
  remaining at 4 h, 5 μM: < 1%

## CCCCCCCCCCCCCCCC(=O)N[C@@H](CCC(=O)NCCOCCOCC(=O)NCCOCCOCC(=O)N[C@H](CCC(N)=O)C(=O)N[C@@H](CCCCNC(=N)N)C(=O)N1CCC[C@H]1C(=O)N[C@H](CCCNC(=N)N)C(=O)N[C@@H](CC1CCCCC1)C(=O)N[C@@H](CO)C(=O)N[C@@H](Cc1c[nH]cn1)C(=O)N[C@@H](CCCCN)C(=O)NCC(=O)N1[C@H](C(=O)N[C@@H](CCCC)C(=O)N2CCC[C@H]2C(=O)N[C@@H](CC(=O)O)Cc2ccccc2)C[C@@H]2CCCC[C@@H]21)C(=O)O [compound 614] ({Palmitoyl-γGlu-AEEA-AEEA}-[dQ][hArg]P[dR][Cha]SHKG[Oic][Nle]P[d(β3hF)]-OH)
[1]
  remaining at 4 h, 5 μM: 90%
Rat APJ receptor; [5]
  EC50: 10.3 nM
[2]
  remaining at 4 h, 5 μM: 9%
Human APJ receptor; human APJ receptor
  EC50: 1.25 nM
[3]
  remaining at 4 h, 5 μM: 11%

## {Palm} [AC4Abu] [Aeea] [Aeea] q R P [NMeArg] [Cha] S H K G [Oic] [Nle] [Aib] [D-BhPhe] {COOH}
Rat plasma
  not cleaved: >90.0 % remaining at 4 hours

## {Acetyl-NH} [hArg] r Q [hArg] P E [NMeLeu] S H K G [Oic] [pI-Phe] P [D-Bip] {COOH}
Rat plasma
  not cleaved: >90.0 % remaining at 4 hours

## CCCCCCCCCCCCC(=O)N[C@@H](CCC(=O)NCCOCCOCC(=O)NCCOCCOCC(=O)N[C@@H](CCC(N)=O)C(=O)N[C@@H](CCCNC(=N)N)C(=O)N1CCC[C@H]1C(=O)N(C)[C@@H](CCCNC(=N)N)C(=O)N[C@@H](CC1CCCCC1)C(=O)N[C@@H](CO)C(=O)N[C@@H](Cc1c[nH]cn1)C(=O)N[C@@H](CCCCN)C(=O)NCC(=O)N1[C@H](C(=O)N[C@@H](CCCC)C(=O)NC(C)(C)C(=O)N[C@@H](Cc2ccc(Cl)cc2)C(=O)O)C[C@@H]2CCCC[C@@H]21)C(=O)O [compound 382] ({Tridecanoyl-γGlu-AEEA-AEEA}-QRP[NMeR][Cha]SHKG[Oic][Nle][Aib][Phe(4-Cl)]-OH)
[1]
  remaining at 4 h, 5 μM: 91%
[2]
  remaining at 4 h, 5 μM: 2%
[4]; 0.5 mg/kg
  AUC(0-inf): 0.0961 µM·h
  half-life: 4.1 h
[3]
  remaining at 4 h, 5 μM: 6%

## {Palm} [AC4Abu] [Aeea] [Aeea] q [hArg] P r [Cha] S H K G [Oic] [Nle] P [D-BhPhe] {COOH}
Rat plasma
  not cleaved: 90 % remaining at 4 hours

## {Palm} [AC4Abu] [Aeea] [Aeea] q R P [NMeArg] [Cha] S H K G [Pip] [Nle] [Nip] [4-Cl-F] {COOH}
Rat plasma
  not cleaved: >90.0 % remaining at 4 hours

## {PDA}[AC4Abu][Aeea][Aeea][hArg]rQ[hArg]Pr[NMeLeu]SHKG[Oic][pI-Phe]P[D-Bip]{COOH}
Rat plasma
  not cleaved: >90.0 % remaining at 4 hours

## {Palm} [AC4Abu] [Aeea] [Aeea] q R P [NMeArg] [Cha] S H K G [Oic] [Nle] [Inp] [4-Cl-F] {COOH}
Rat plasma
  not cleaved: >90.0 % remaining at 4 hours

## CCCC[C@H](NC(=O)[C@@H]1C[C@@H]2CCCC[C@@H]2N1C(=O)CNC(=O)[C@H](CCCCN)NC(=O)[C@H](Cc1c[nH]cn1)NC(=O)[C@H](CO)NC(=O)[C@H](CC1CCCCC1)NC(=O)[C@H](CCCNC(=N)N)N(C)C(=O)[C@@H]1CCCN1C(=O)[C@H](CCCCNC(=N)N)NC(=O)[C@H](CCC(N)=O)NC(C)=O)C(=O)N1CCC[C@H]1C(=O)N[C@@H](Cc1ccc(Cl)cc1)C(=O)O [compound 61] (Ac-Q[hArg]P[NMeR][Cha]SHKG[Oic][Nle]P[Phe(4-Cl)]-OH)
[1]
  remaining at 4 h, 5 μM: 27.9%
Rat APJ receptor; [5]
  EC50: 0.189 nM
[2]
  remaining at 4 h, 5 μM: 7.58%
Human APJ receptor; human APJ receptor
  EC50: 0.159 nM
[3]
  remaining at 4 h, 5 μM: < 1%

## {H2}[3TP](20K-mPEGReg)[hArg]rQ[hArg]Pr[NMeLeu]SHKG[Oic][pI-Phe]P[D-Bip]{COOH} ({20K‑mPEGReg-3TP}-[hArg][dR]Q[hArg]P[dR][NMeL]SHKG[Oic][Phe(4-I)]P[dBip]-OH; reading uncertain) [SEQ ID NO: 103]
[4]; 20 kDa PEGylated peptides, FIG. 9, 1/10th the dose of the others
  plasma concentration in rat: high plasma concentrations

## {Palm} [AC4Abu] [Aeea] [Aeea] q R P [NMeArg] [Cha] S H K G [Oic] [Nle] [BhPro] [D-BhPhe] {COOH}
Rat plasma
  not cleaved: >90.0 % remaining at 4 hours

## {TDA}[AC4Abu][Aeea][Aeea][hArg]rQ[hArg]Pr[NMeLeu]SHKG[Oic][pI-Phe]P[D-Bip]{COOH}
Rat plasma
  not cleaved: >90.0 % remaining at 4 hours

## {Palm} [AC4Abu] [Aeea] [Aeea] q R P [NMeArg] [Cha] S H K G [Oic] [Nle] [aMePro] [D-BhPhe] {COOH}
Rat plasma
  not cleaved: >90.0 % remaining at 4 hours

## CCCCCCCCCCCCC(=O)N[C@@H](CCC(=O)NCCOCCOCC(=O)NCCOCCOCC(=O)N[C@@H](CCC(N)=O)C(=O)N[C@@H](CCCNC(=N)N)C(=O)N1CCC[C@H]1C(=O)N(C)[C@@H](CCCNC(=N)N)C(=O)N[C@@H](CC1CCCCC1)C(=O)N[C@@H](CO)C(=O)N[C@@H](Cc1c[nH]cn1)C(=O)N[C@@H](CCCCN)C(=O)NCC(=O)N1[C@H](C(=O)N[C@@H](CCCC)C(=O)N2CCC[C@H]2C(=O)N[C@H](CC(=O)O)Cc2ccccc2)C[C@@H]2CCCC[C@@H]21)C(=O)O [Peptide 379] ({Tridecanoyl-γGlu-AEEA-AEEA}-QRP[NMeR][Cha]SHKG[Oic][Nle]P[β3hF]-OH)
[4]; 0.1 mg/kg
  AUC(0-inf): 0.145 µM·h
  half-life: 0.261 h

## CCCCCCCCCCCCC(=O)N[C@@H](CCC(=O)NCCOCCOCC(=O)NCCOCCOCC(=O)NC(CC(=O)N[C@@H](CCCNC(=N)N)C(=O)N1CCC[C@H]1C(=O)N(C)[C@@H](CCCNC(=N)N)C(=O)NC(C)(CC(C)C)C(=O)N[C@@H](CO)C(=O)N[C@@H](Cc1c[nH]cn1)C(=O)N[C@@H](CCCCN)C(=O)NCC(=O)N1[C@H](C(=O)N[C@@H](CCCC)C(=O)N2CCC[C@H]2C(=O)N[C@@H](Cc2ccc(Cl)cc2)C(=O)O)C[C@@H]2CCCC[C@@H]21)C(C)C)C(=O)O (stereo partly drawn) [compound 374] ({Tridecanoyl-γGlu-AEEA-AEEA}-[ξβ3hV]RP[NMeR][ξαMeL]SHKG[Oic][Nle]P[Phe(4-Cl)]-OH)
[1]
  remaining at 4 h, 5 μM: 66%
Rat APJ receptor; [5]
  EC50: 0.503 nM
[2]
  remaining at 4 h, 5 μM: 89%
Human APJ receptor; human APJ receptor
  EC50: 0.305 nM
[3]
  remaining at 4 h, 5 μM: 11%

## {hexanoyl} [AC4Abu] [Aeea] [Aeea] Q R P [NMeArg] [Cha] S H K G [Oic] [Nle] [Aib] [4-Cl-F] {COOH}
Rat plasma
  not cleaved: >90.0 % remaining at 4 hours

## {Acetyl-NH} E r Q [hArg] P r [NMeLeu] S H K G [Oic] [pI-Phe] P [D-Bip] {COOH}
Rat plasma
  not cleaved: >90.0 % remaining at 4 hours
